Reference: US20080234233A1, “MEDICAMENT FOR TREATMENT OF NEURODEGENERATIVE DISEASES” (INSTITUTE OF MEDICINAL MOLECULAR DESIGN INC., priority 2002, published 2008)

Tests used:
AP-1 activation = experiment: Inhibition against AP-1 activation by TNF α stimulation, luciferase reporter assay in HeLa; assay type: cell-based, human; details: TNF-α 40 ng/ml, 4 hours; for inhibition at 1 µg/mL / inhibition at 10 µg/mL: Homo sapiens, read-out: Inhibitory rate against AP-1 activation(%)
Procedure: Measurement of Inhibition Against AP-1 Activation by TNF α Stimulation
Using a transfection reagent(Effectene; QIAGEN), the human uterine cancer cell strain HeLa was transfected with a plasmid(pAP-1-Luc Reporter Plasmid: […]) integrated with an oligonucleotide having seven tandem copies of AP-1 binding sequences(TGACTAA) on an upstream region of firefly luciferase gene(Luc) according to the QIAGEN's protocol, and the cells were incubated for 6 to 24 hours. After addition of TNF-α (40 ng/ml) in the presence or absence of a test compound, the cells were incubated for 4 hours, and intracellular luciferase activity was measured by using PicaGene LT(TOYO INK MFG Co., Ltd.) and a chemical luminescence measurement apparatus([…]luor Plus; TECAN). The inhibitory ratio was measured as a ratio relative to the value of the luciferase activity in the absence of the test compound.

NF-κ B activation = experiment: Inhibitory activity of NF-κB activation, luciferase reporter assay under TNF-α stimulation in HepG2; assay type: cell-based, human; details: HepG2, TNF-α 40 ng/ml, 4 hours; for inhibition at 1 µg/mL / inhibition at 10 µg/mL: Homo sapiens, read-out: Inhibitory rate against NF-κB activation (%)
Procedure, shortened: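 HepG2 cells transiently transfected with luciferase reporter carrying five tandem NF-κB binding sites, then stimulated with TNF-α (40 ng/ml) ± compound for 4 hours. Luminescent luciferase activity measured; inhibition expressed relative to activity without compound.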

SMILES | Inhibitory rate against NF-κB activation (%) (NF-κ B activation; Drug concentration at 10 μg/mL) | Inhibitory rate against NF-κB activation (%) (NF-κ B activation; Drug concentration at 1 μg/mL) | other results
O=C(Nc1nc(-c2ccccc2)c(C(=O)O)s1)c1cc(Br)ccc1O [compound 217, 2-(5-bromo-2-hydroxybenzoyl)amino-4-phenylthiazole-5-carboxylic acid] | – | – | inhibition at 1 µg/mL (AP-1 activation; Drug concentration at 1 μg/mL): 21.7%; inhibition at 10 µg/mL (AP-1 activation; Drug concentration at 10 μg/mL): 55.3%
O=C(Nc1cc(C(F)(F)F)cc(C(F)(F)F)c1)c1cc(Cl)cnc1O [compound 75] | 82.2 | 58.1 | Inhibitory rate against AP-1 activation(%) (AP-1 activation; Drug concentration at 1 μg/mL): 33.3%; Inhibitory rate against AP-1 activation(%) (AP-1 activation; Drug concentration at 10 μg/mL): 56.7%
O=C(Nc1cc(C(F)(F)F)cc(C(F)(F)F)c1)c1cc(/C=C/c2ccccc2)ccc1O [compound 19] | 96.9 | 95.5 | Inhibitory rate against AP-1 activation(%) (AP-1 activation; Drug concentration at 10 μg/mL): 33.9%
O=C(Nc1cc(C(F)(F)F)cc(C(F)(F)F)c1)c1cc(I)ccc1O [compound 7, N-[3,5-bis(trifluoromethyl)phenyl]-2-hydroxy-5-iodobenzamide] | – | – | inhibition at 1 µg/mL (NF-κ B activation; Drug concentration at 1 μg/mL): 86.6%; inhibition at 10 µg/mL (NF-κ B activation; Drug concentration at 10 μg/mL): 85.4%; inhibition at 1 µg/mL (AP-1 activation; Drug concentration at 1 μg/mL): 25.4%; inhibition at 10 µg/mL (AP-1 activation; Drug concentration at 10 μg/mL): 82.4%
O=C(Nc1cc(C(F)(F)F)cc(C(F)(F)F)c1)c1cc(-c2ccccc2)ccc1O [compound 23] | 96.8 | 91.8 | Inhibitory rate against AP-1 activation(%) (AP-1 activation; Drug concentration at 1 μg/mL): 18.1%; Inhibitory rate against AP-1 activation(%) (AP-1 activation; Drug concentration at 10 μg/mL): 60.9%
CC(C)(C)CC(C)(C)c1ccc(O)c(C(=O)Nc2cc(C(F)(F)F)cc(C(F)(F)F)c2)c1 [compound 60] | 99.1 | 94.0 | –
O=C(Nc1nc(-c2c(F)c(F)c(F)c(F)c2F)cs1)c1cc(Cl)ccc1O [compound 266, 5-Chloro-2-hydroxy-N-[4-(2,3,4,5,6-pentafluorophenyl)thiazol-2-yl]benzamide] | – | – | inhibition at 1 µg/mL (NF-κ B activation; Drug concentration at 1 μg/mL): > 99.9%
COc1cc(NC(=O)c2cc(Br)ccc2O)cc(C(F)(F)F)c1 [compound 93] | 97.2 | 84.5 | –
CCOC(=O)c1sc(NC(=O)c2cc(Br)ccc2O)nc1-c1ccccc1 [compound 216, 2-(5-bromo-2-hydroxybenzoyl)amino-4-phenylthiazole-5-carboxylic acid ethyl ester] | – | – | inhibition at 1 µg/mL (NF-κ B activation; Drug concentration at 1 μg/mL): 55.8%; inhibition at 10 µg/mL (NF-κ B activation; Drug concentration at 10 μg/mL): 82.8%
O=C(Nc1cc(C(F)(F)F)cc(C(F)(F)F)c1)c1cc(C(=O)N2CCCCC2)ccc1O [compound 39, N-[3,5-Bis(trifluoromethyl)phenyl]-2-hydroxy-5-(piperidine-1-carbonyl)benzamide] | – | – | inhibition at 1 µg/mL (NF-κ B activation; Drug concentration at 1 μg/mL): 23.7%; inhibition at 10 µg/mL (NF-κ B activation; Drug concentration at 10 μg/mL): 82.2%
O=C(Nc1cc(C(F)(F)F)cc(C(F)(F)F)c1)c1cc(N=Nc2ccc(S(=O)(=O)Nc3ccccn3)cc2)ccc1O [compound 49] | 89.1 | 19.4 | –
O=C(Nc1cc(C(F)(F)F)ccc1N1CCC(C(F)(F)F)CC1)c1cc(Cl)ccc1O [compound 112] | 95.7 | 96.5 | –
CCNC(=O)c1sc(NC(=O)c2cc(Br)ccc2O)nc1-c1ccccc1 [compound 221] | 84.0 | 51.9 | –
Cc1ccc(O)c(C(=O)Nc2cc(C(F)(F)F)ccc2C(F)(F)F)c1 [compound 84] | 96.6 | 92.6 | –
O=C(Nc1cc(C(F)(F)F)cc(C(F)(F)F)c1)c1cc(C#Cc2ccccc2)ccc1O [compound 22, N-[3,5-bis(trifluoromethyl)phenyl]-2-hydroxy-5-(phenylethynyl)-benzamide] | – | – | inhibition at 1 µg/mL (NF-κ B activation; Drug concentration at 1 μg/mL): 83.9%; inhibition at 10 µg/mL (NF-κ B activation; Drug concentration at 10 μg/mL): 97.1%; inhibition at 10 µg/mL (AP-1 activation; Drug concentration at 10 μg/mL): 44.1%
O=C(Nc1cc(C(F)(F)F)cc(C(F)(F)F)c1)c1cc(S(=O)(=O)Nc2cc(C(F)(F)F)cc(C(F)(F)F)c2)ccc1O [compound 247] | >99.9 | – | –
Cc1ccc(O)c(C(=O)Nc2cc(C(C)(C)C)cc(C(C)(C)C)c2)c1 [compound 147] | 91.0 | 38.9 | –
O=C(Nc1cc(C(F)(F)F)ccc1C(F)(F)F)c1cc(Br)ccc1O [compound 268] | 98.4 | 87.1 | –
O=C(Nc1nc(-c2cccc(C(F)(F)F)c2)cs1)c1cc(Cl)ccc1O [compound 265, 5-Chloro-2-hydroxy-N-{4-[3-(trifluoromethyl)phenyl]thiazol-2-yl}benzamide] | – | – | inhibition at 1 µg/mL (NF-κ B activation; Drug concentration at 1 μg/mL): > 99.9%
CCCCCCOc1ccc(S(C)(=O)=O)cc1NC(=O)c1cc(Cl)ccc1O [compound 165] | 99.4 | 95.9 | –

Continued, in another order:

Inhibitory rate against NF-κB activation (%) (NF-κ B activation; Drug concentration at 10 μg/mL) | Inhibitory rate against NF-κB activation (%) (NF-κ B activation; Drug concentration at 1 μg/mL) | SMILES | other results
67.0 | – | O=C(Nc1nc(-c2ccccc2)c(-c2ccccc2)s1)c1cc(Br)ccc1O [compound 211] | Inhibitory rate against AP-1 activation(%) (AP-1 activation; Drug concentration at 10 μg/mL): 29.7%
– | 34.6 | CCOC(=O)c1sc(NC(=O)c2cc(-c3ccccc3)ccc2O)nc1-c1ccccc1 [compound 225] | Inhibitory rate against AP-1 activation(%) (AP-1 activation; Drug concentration at 10 μg/mL): 33.5%
96.8 | 84.5 | O=C(Nc1cc(Cl)cc(Cl)c1)c1cc(Cl)ccc1O [compound 125] | Inhibitory rate against AP-1 activation(%) (AP-1 activation; Drug concentration at 1 μg/mL): 22.7%; Inhibitory rate against AP-1 activation(%) (AP-1 activation; Drug concentration at 10 μg/mL): 74.8%
94.4 | 85.3 | O=C(Nc1nc(C(F)(F)F)c(Br)s1)c1cc(Br)ccc1O [compound 187] | Inhibitory rate against AP-1 activation(%) (AP-1 activation; Drug concentration at 10 μg/mL): 49.9%
98.6 | 94.9 | O=C(Nc1cc(C(F)(F)F)cc(C(F)(F)F)c1)c1cc(Br)ccc1O [compound 6] | Inhibitory rate against AP-1 activation(%) (AP-1 activation; Drug concentration at 1 μg/mL): 48.4%; Inhibitory rate against AP-1 activation(%) (AP-1 activation; Drug concentration at 10 μg/mL): 91.2%
97.0 | 94.2 | O=C(Nc1cc(Cl)cc(Cl)c1)c1cc(F)ccc1O [compound 124] | Inhibitory rate against AP-1 activation(%) (AP-1 activation; Drug concentration at 10 μg/mL): 67.7%
97.1 | 85.4 | O=C(Nc1cc(Cl)cc(Cl)c1)c1cc(I)ccc1O [compound 127] | Inhibitory rate against AP-1 activation(%) (AP-1 activation; Drug concentration at 10 μg/mL): 75.4%
97.7 | 95.0 | CC(=O)Oc1ccc(Cl)cc1C(=O)Nc1nc(C(C)(C)C)c(C(=O)C(C)(C)C)s1 [compound 200] | –
97.9 | 93.8 | CC(C)CCOc1ccc(OCCC(C)C)c(NC(=O)c2cc(Cl)ccc2O)c1 [compound 162] | –
95.9 | 42.2 | CN(C)S(=O)(=O)c1ccc(O)c(C(=O)Nc2cc(C(F)(F)F)cc(C(F)(F)F)c2)c1 [compound 41, N-[3,5-Bis(trifluoromethyl)phenyl]-5-dimethylsufamoyl-2-hydroxybenzamide] | –
92.8 | 77.1 | O=C(Nc1cc(Cl)cc(Cl)c1)c1cc(Br)ccc1O [compound 126] | Inhibitory rate against AP-1 activation(%) (AP-1 activation; Drug concentration at 1 μg/mL): 39.3%; Inhibitory rate against AP-1 activation(%) (AP-1 activation; Drug concentration at 10 μg/mL): 83.8%
– | 28.6 | Cc1ccc(C(=O)c2ccccc2)c(NC(=O)c2cc(Cl)ccc2O)c1 [compound 267] | –
92.9 | 81.7 | O=C(Nc1cc(C(F)(F)F)cc(C(F)(F)F)c1)c1cc(-c2ccsc2)ccc1O [compound 29] | Inhibitory rate against AP-1 activation(%) (AP-1 activation; Drug concentration at 10 μg/mL): 51.5%
96.5 | 87.6 | CCOC(=O)c1sc(NC(=O)c2cc(Br)ccc2O)nc1C(F)(F)F [compound 224] | –
93.3 | 83.0 | N#Cc1ccc(Cl)cc1NC(=O)c1cc(Cl)ccc1O [compound 154] | –
84.7 | 26.6 | O=C(Nc1cc(-c2ccccc2)[nH]n1)c1cc(Br)ccc1O [compound 233] | –
95.1 | 91.4 | O=C(Nc1cc(Cl)cc(Cl)c1)c1cc(Br)cc(Br)c1O [compound 128] | –
97.9 | 82.4 | COc1ccc(-c2ccccc2)cc1NC(=O)c1cc(Cl)ccc1O [compound 141] | –
93.8 | 20.0 | CC(C)(C)c1nc(NC(=O)c2cc(Br)ccc2O)sc1C#N [compound 189] | –
95.1 | 84.2 | O=C(Nc1cccc(Br)n1)c1cc(Cl)ccc1O [compound 243] | –
95.3 | 35.1 | CCOc1ccc(OCC)c(NC(=O)c2cc(Cl)ccc2O)c1 [compound 152] | –
